Here are results for 19 compounds from patent publication US20240299400A1, “Transcription Factor GLI1 Inhibitors and Uses Thereof” (University of Connecticut, priority 2023, published 2024).

Assay [1] deals with GLI1 mRNA expression. In words: RT-qPCR GLI1 mRNA expression in ASZ001 BCC cells. In kind it is cell-based, mouse. The note with it: Mus musculus, Ave ± SEM, read-out: RT-qPCR, IC50 ASZ001. The procedure:
(§1) ASZ001 and Sufu-KO cells were seeded in 96-well plates (10,000/well, 100 μL) and incubated overnight under growth conditions. On the second day, ‘growth’ media was removed and replaced by ‘assay’ media (100 μL). On the third day, cells were treated with a serial dilution of drugs or DMSO for 48 h. mRNA expression was determined through Taqman Fast Cells-to-CT Kit (#4399003) per the manufacturer's instructions. In brief, cells were washed with chilled PBS, then mixed with lysis solution containing DNase I and incubated at RT for 5 min. Stop solution was then added to quench the lysis reagents. cDNA was then synthesized through a BioRad MyCycler following addition of reverse transcriptase. Finally, the cDNA was amplified through an ABI 7500 system following addition of Taqman Fast Universal PCR Master Mix and Taqman Gene Expression Primer. Relative gene expression levels were computed by the ΔΔCt method. Values represent mRNA expression relative to DMSO control (set at 1.0). Data were analyzed using GraphPad Prism, and IC50 values are the mean±SEM for at least two separate experiments performed in triplicate. Primers used are as follows: mouse ActB (Mm00607939_s1); mouse GLI1 (Mm00494645_ml); mouse Gli2 (Mm01293117_ml); mouse Ptch1 (Mm00436026_ml); mouse Hhip (Mm00469580_ml).
(In general: Quantitative PCR measures a nucleic acid by following its amplification.)

Assay [2] has as its system GLI1 mRNA expression. In words: RT-qPCR GLI1 mRNA expression in Sufu-KO MEFs. The class given is cell-based, mouse. The conditions noted are these: for IC50: Mus musculus, Ave ± SEM, read-out: RT-qPCR, IC50 Sufu-KO. How it is done:
as §1

A further assay addresses T1, GLI1-ZFD (Homo sapiens, UniProt P08151).
T1 construct: GLI1-ZFD Expression and Purification; made in house
T1 sequence (P08151 234-388 limits assumed): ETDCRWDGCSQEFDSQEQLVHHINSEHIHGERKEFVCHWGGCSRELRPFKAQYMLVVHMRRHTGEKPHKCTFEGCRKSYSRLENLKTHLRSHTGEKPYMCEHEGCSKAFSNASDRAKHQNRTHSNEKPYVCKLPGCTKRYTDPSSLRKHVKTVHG
In words: Microscale thermophoresis (MST) binding to GLI1-ZFD. The note with it: for binding to GLI1 (in words): MST binding assay; for Kd: Table 7, Ave ± SEM. How it is done:
The protein expression and purification experiments followed the previous reported procedures [C. A. Maschinot, et al., Synthesis and evaluation of third generation vitamin D3 analogues as inhibitors of hedgehog signaling. Euro. J. Med. Chem. 162 (2019) 495-506].
GLI1 protein labeling was performed through the Monolith Protein Labeling Kit RED-NHS 2nd Generation (Nanotemper #MO-LO11) per the manufacturer's instructions. Briefly, GLI1 (100 μg, 1 mg/mL) underwent buffer exchange to remove incompatible ingredients like Tris or DTT. Proteins in the Labeling Buffer were incubated with freshly prepared dye (˜3-fold excess of dye) for 30 min at RT in the dark. Unreacted ‘free’ dye was removed by a gel-filtration column. Protein concentration and degree-of-labeling were calculated by measuring absorption at 280 nm and 650 nm. For each assay, 200 nM GLI1 in MST Buffer was mixed with compound dilution in DMSO (DMSO<5%, v/v). The mixture was then loaded to a capillary and the thermophoresis was subsequently determined through Monolith NT.115 station. Results were analyzed by MO.Affinity Analysis software and visualized by Graphpad Prism. MST Buffer: 50 mM HEPES, pH 8.3, 100 mM NaCl.

Another assay has as its system ASZ001 cells. In words: MTS anti-proliferative assay in ASZ001 cells. In kind it is cell-based, murine. The note with it: Mus musculus, ASZ001, Ave ± SEM. How it is done: Cell viability was assessed by MTS proliferation assay kit (Promega) per manufacturer's protocol. Briefly, 2×10^4 cells were plated in a 96-well plate in 100 μL growth medium to make the cell population at ˜80% confluence. After 24 h, 1 μL drug solution was added to each well. DMSO was used as vehicle compound. After 48 h incubation (37° C., 5% CO2), 20 μL of freshly prepared 3-(4,5-dimethylthiazol-2-yl)-5-(3-carboxymethoxyphenyl)-2-(4-sulfophenyl)-2H-tetrazolium (MTS)/phenazine methosulfate (PMS) solution was added to each well, and the plate was returned to the incubator for 1 h. Absorbance at 490 nm was recorded, and the result was analyzed by GraphPad Prism 5. GI50 values represent mean±SEM for at least two separate experiments performed in triplicate.
A general note: Formazan colour is commonly taken as a measure of viable cells.

Where only a bound is given, the exact number is not on record here.

In general, IC50 refers to the point on the concentration scale where inhibition reaches its midpoint. The GI50 is the concentration at which growth is held to half of that of the control. A high value points to lower sensitivity of the cells. `CCN(CC)c1ccc(C(Nc2ccccn2)c2ccc3ccc(C)nc3c2OC2CCCC2)cc1` (stereo not drawn) [Compound 22, N-((4-Diethylaminophenyl)(8-cyclopentyloxy-2-methylquinolin-7-yl)methyl)pyridin-2-amine]: the IC50 in the assay with GLI1 mRNA expression [1] (ASZ001, Table 5, GLI1 mRNA) was 0.54 µM; with GLI1 mRNA expression [2] (Table 5, GLI1 mRNA), greater than 25 µM. Also, in the assay with GLI1 mRNA expression [2], the “anti-GLI1 activity in Sufu-KO cells (in words)” value is “inactive”. Moreover, the “binding to GLI1 (in words)” value on GLI1-ZFD is “did not bind to GLI1”. Further, in the assay with ASZ001 cells (Table 5, 48 h), the 50% growth inhibitory concentration (GI50) was greater than 100 µM.
As for `CCN(CC)c1ccc(C(Nc2ccccn2)c2ccc3ccc(C)nc3c2OCc2ccc(OC)cc2)cc1` (stereo not drawn) [Compound 26, N-((4-Diethylaminophenyl)(8-(4-methoxybenzyloxy)-2-methylquinolin-7-yl)methyl)pyridin-2-amine], the IC50 in the assay on GLI1 mRNA expression [1] (ASZ001, Table 5, GLI1 mRNA) was 1.2 ± 0.5 µM; in the assay on GLI1 mRNA expression [2] (Table 5, GLI1 mRNA), greater than 25 µM. In the assay with ASZ001 cells (Table 5, 48 h), the GI50 was greater than 100 µM.
As for `CCN(CC)c1ccc(C2c3ccc4ccc(C)nc4c3OC(=O)N2c2ccccn2)cc1` (stereo not drawn) [Compound 27, 4-(4-Diethylaminophenyl)-9-methyl-3-(pyridin-2-yl)-3,4-dihydro-2H-[1,3]oxazino[5,6-h]quinolin-2-one], the IC50 with GLI1 mRNA expression [1] (ASZ001, Table 5, GLI1 mRNA) is 6.9 ± 1.1 µM; in the assay with GLI1 mRNA expression [2] (Table 5, GLI1 mRNA) it was greater than 25 µM. Also, the GI50 in the assay with ASZ001 cells (Table 5, 48 h) was greater than 100 µM.
Taken in the same sequence, the figures for `CCN(CC)c1ccc(C(C)(Nc2ccccn2)c2ccc3ccc(C)nc3c2O)cc1` (stereo not drawn) [Compound 28, 7-(1-(4-(Diethylamino)phenyl)-1-(pyridin-2-ylamino)ethyl)-2-methylquinolin-8-ol] were 7.2 ± 1.1 µM, 2.1 ± 0.6 µM and 25.1 ± 4.2 µM.
As to `CCN(CC)c1ccc(C(NC)c2cc(C)c3ccc(C)nc3c2O)cc1` (stereo not drawn) [Compound 29, 7-((4-(Diethylamino)phenyl)(methylamino)methyl)-2,5-dimethylquinolin-8-ol], the IC50 in the assay with GLI1 mRNA expression [1] (ASZ001, Table 6, GLI1 mRNA) is 15.4 ± 2.2 µM; with GLI1 mRNA expression [2] (Table 6, GLI1 mRNA) it was greater than 25 µM. In addition, the GI50 with ASZ001 cells (Table 6, 48 h) was greater than 100 µM.
Taken in the same sequence, the figures for `CCN(CC)c1ccc(C(Nc2cccnc2)c2ccc3ccc(C)nc3c2O)cc1` (stereo not drawn) [Compound 30, 7-((4-(diethylamino)phenyl)(pyridin-3-ylamino)methyl)-2-methylquinolin-8-ol] were 2.5 ± 0.8 µM, 4.4 ± 1.9 µM and 81.4 ± 10.7 µM.
For `CCN(CC)c1ccc(C(Nc2ccncc2)c2ccc3ccc(C)nc3c2O)cc1` (stereo not drawn) [Compound 31, 7-((4-(diethylamino)phenyl)(pyridin-4-ylamino)methyl)-2-methylquinolin-8-ol] the same measures were 21.4 ± 6.7 µM, greater than 25 µM and greater than 100 µM.
Turning to `Cc1ccc2c(C)cc(C(C)Nc3ccccn3)c(O)c2n1` (stereo not drawn) [Compound 32, 2,5-Dimethyl-7-(1-(pyridin-2-ylamino)ethyl)quinolin-8-ol], the concentration for half-maximal inhibition (IC50) was 5.3 ± 1.7 µM in the assay on GLI1 mRNA expression [1] (ASZ001, Table 7, GLI1 mRNA) and 4.8 ± 1.4 µM in the assay on GLI1 mRNA expression [2] (Table 7, GLI1 mRNA). The same compound registered a GI50 in the assay with ASZ001 cells (Table 7, 48 h) of 29.8 ± 4 µM.
What is called Kd is the equilibrium constant for the complex coming apart. As to `CCN(CC)c1ccccc1C(Nc1ccccn1)c1ccc2ccc(C)nc2c1O` (stereo not drawn) [Compound 35, 7-((2-Diethylaminophenyl)(pyridin-2-ylamino)methyl)-2-methylquinolin-8-ol], the IC50 in the assay with GLI1 mRNA expression [1] (ASZ001, Table 7, GLI1 mRNA) was determined as 15.8 ± 6.3 µM. The IC50 with GLI1 mRNA expression [2] (Table 7, GLI1 mRNA) amounted to 9 ± 2.2 µM. In addition, at GLI1-ZFD, the “binding to GLI1 (in words)” value is given as “do not bind GLI1” and the Kd is greater than 125 µM. This compound also returned a GI50 with ASZ001 cells (Table 7, 48 h) of 29.3 ± 4.9 µM.
On to `CCN(CC)c1cccc(C(Nc2ccccn2)c2ccc3ccc(C)nc3c2O)c1` (stereo not drawn) [Compound 36, 7-((3-Diethylaminophenyl)(pyridin-2-ylamino)methyl)-2-methylquinolin-8-ol], for which the IC50 in the assay with GLI1 mRNA expression [1] (ASZ001, Table 7, GLI1 mRNA) is 15.1 ± 4.1 µM; in the assay on GLI1 mRNA expression [2] (Table 7, GLI1 mRNA) it was 5.6 ± 1.5 µM. The same compound registered a GI50 with ASZ001 cells (Table 7, 48 h) of 82.5 ± 20.3 µM.
Consider `Cc1ccc2ccc(C(Nc3ccccn3)c3cccc(F)c3)c(O)c2n1` (stereo not drawn) [Compound 37, 7-((3-Fluorophenyl)(pyridin-2-ylamino)methyl)-2-methylquinolin-8-ol], for which the IC50 with GLI1 mRNA expression [1] (ASZ001, Table 7, GLI1 mRNA) came out at 19.2 ± 5.5 µM; in the assay with GLI1 mRNA expression [2] (Table 7, GLI1 mRNA) it was 5.3 ± 1.3 µM. Moreover, in the assay on ASZ001 cells (Table 7, 48 h), the GI50 was found to be 33.1 ± 9.1 µM.
For `CCNc1cccc(C(Nc2ccccn2)c2ccc3ccc(C)nc3c2O)c1` (stereo not drawn) [Compound 38, 7-((3-Ethylaminophenyl)(pyridin-2-ylamino)methyl)-2-methylquinolin-8-ol] the same measures were 19.3 ± 5 µM, 10.6 ± 2.6 µM and greater than 100 µM.
As to `Cc1ccc2ccc(C(Nc3ccccn3)c3ccc(N)cc3)c(O)c2n1` (stereo not drawn) [Compound 41, 7-((4-Aminophenyl)(pyridin-2-ylamino)methyl)-2-methylquinolin-8-ol], the IC50 in the assay with GLI1 mRNA expression [1] (ASZ001, Table 7, GLI1 mRNA) stood at 9.8 ± 1.3 µM; in the assay with GLI1 mRNA expression [2] (Table 7, GLI1 mRNA), 3.5 ± 1 µM. In addition, the GI50 with ASZ001 cells (Table 7, 48 h) was greater than 100 µM.
Taken in the same sequence, the figures for `Cc1ccc2ccc(C(Nc3ccccn3)c3ccc(N4CCc5ccccc54)cc3)c(O)c2n1` (stereo not drawn) [Compound 46, 7-((4-(Indolin-1-yl)phenyl)(pyridin-2-ylamino)methyl)-2-methylquinolin-8-ol] were 15.4 ± 4.7 µM, 4.3 ± 0.8 µM and 67.9 ± 12.8 µM.
Taken in the same sequence, the figures for `Cc1ccc2ccc(C(Nc3ccccn3)c3ccc(-n4ccc5ccccc54)cc3)c(O)c2n1` (stereo not drawn) [Compound 47, 7-((4-(1H-indol-1-yl)phenyl)(pyridin-2-ylamino)methyl)-2-methylquinolin-8-ol] were 10.5 ± 3.2 µM, 1.7 ± 0.3 µM and 62.3 ± 13.5 µM.
`Cc1ccc2ccc(C(Nc3ccccn3)c3ccc(-n4ccnc4)cc3)c(O)c2n1` (stereo not drawn) [Compound 50, 7-((4-(1H-Imidazol-1-yl)phenyl)(pyridin-2-ylamino)methyl)-2-methylquinolin-8-ol]: the IC50 was greater than 25 µM in the assay on GLI1 mRNA expression [1] (ASZ001, Table 7, GLI1 mRNA) and 3.8 ± 0.7 µM in the assay with GLI1 mRNA expression [2] (Table 7, GLI1 mRNA). Further, the Kd on GLI1-ZFD was determined as 18.8 ± 5.2 µM. Moreover, the GI50 in the assay with ASZ001 cells (Table 7, 48 h) was greater than 100 µM.
Regarding `Cc1ccc2ccc(C(Nc3ccccn3)c3ccc(-n4ccnc4C)cc3)c(O)c2n1` (stereo not drawn) [Compound 51, 7-((4-(2-Methyl-1H-imidazol-1-yl)phenyl)(pyridin-2-ylamino)methyl)-2-methylquinolin-8-ol], the IC50 in the assay on GLI1 mRNA expression [1] (ASZ001, Table 7, GLI1 mRNA) came to 5.3 ± 1.2 µM; in the assay with GLI1 mRNA expression [2] (Table 7, GLI1 mRNA), 13.6 ± 3.5 µM. The GI50 with ASZ001 cells (Table 7, 48 h) is greater than 100 µM.
Consider `Cc1ccc2ccc(C(Nc3ccccn3)c3ccc(-n4cccn4)cc3)c(O)c2n1` (stereo not drawn) [Compound 52, 7-((4-(1H-Pyrazol-1-yl)phenyl)(pyridin-2-ylamino)methyl)-2-methylquinolin-8-ol], for which the IC50 amounted to 2.7 ± 0.9 µM in the assay on GLI1 mRNA expression [1] (ASZ001, Table 7, GLI1 mRNA) and 1.5 ± 0.3 µM in the assay on GLI1 mRNA expression [2] (Table 7, GLI1 mRNA). The compound also yielded a Kd at GLI1-ZFD of 10.5 ± 4.4 µM. The compound also had a GI50 in the assay with ASZ001 cells (Table 7, 48 h) of 37.2 ± 4.8 µM.
As to `COc1c(C(Nc2ccccn2)c2ccc(N3CCCC3=O)cc2)ccc2ccc(C)nc12` (stereo not drawn) [Compound 53, 1-(4-((8-Methoxy-2-methylquinolin-7-yl)(pyridin-2-ylamino)methyl)phenyl)pyrrolidin-2-one], the IC50 was 0.77 ± 0.03 µM with GLI1 mRNA expression [1] (ASZ001, Table 7, GLI1 mRNA) and greater than 25 µM in the assay on GLI1 mRNA expression [2] (Table 7, GLI1 mRNA). This compound also yielded a GI50 in the assay on ASZ001 cells (Table 7, 48 h) of 42.9 ± 12.2 µM.
